# Results as given in patent US8450280B2, “Activation of peptide prodrugs by hK2” (GenbSpera, Inc., priority 1999, dated 2013).
# Read-outs that look alike come from different tables or passages of the source. Non-standard residues stand in square brackets, D forms with d. Residues, ends and D or L forms follow the SMILES beside them. *: point of attachment. AMC = Cc1cc(=O)oc2cc(N*)ccc12; Cbz = O=C(OCc1ccccc1)*; Boc = CC(C)(C)OC(=O)*
# Experiments:
# hK2 [1] = molecular target: T1, hK2 (Homo sapiens, UniProt P20151); test: Kinetic constants of AMC substrate hydrolysis by hK2; type: biochemical; parameters: key to Kcat: The entry “NR” means that no reaction was detected; conditions: for Kcat: 50 mM Tris pH 7.5, 0.1 M NaCl, 0.2% BSA, 37° C., Lineweaver-Burk, NR = no reaction detected; for Activity (%): hydrolytic activity of hK2 in relation to H-Pro-Phe-Arg-AMC: 100 μM substrate
# T1 construct: made in house
# T1 sequence (P20151 25-261): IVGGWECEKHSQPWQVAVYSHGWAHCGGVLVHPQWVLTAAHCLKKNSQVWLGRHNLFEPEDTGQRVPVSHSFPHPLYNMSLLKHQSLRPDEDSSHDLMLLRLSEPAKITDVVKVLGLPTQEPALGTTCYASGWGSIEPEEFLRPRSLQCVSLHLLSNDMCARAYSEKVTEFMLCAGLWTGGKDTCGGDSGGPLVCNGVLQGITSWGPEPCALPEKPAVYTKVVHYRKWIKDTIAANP
# Description: The measurements were done with Fluoroscan II (Labsystems, Helsinki, Finland) using a 355 nm excitation filter and a 460 nm emission filter. The fluorescence of 7-amino-4-methylcoumarin (AMC) (Sigma, St. Louis, Mo., USA) was determined to be 700 FIU/nmol and this value was used in the calculations of the rate of product formation. Unless otherwise indicated all final analyses were performed in 200 μl of the buffer 50 mM Tris pH 7.5, 0.1 M NaCl, and 0.2% BSA at 37° C. using 1.6 pmol hK2. BSA was added to the reaction mixture in order to minimize adsorption of the enzyme to the walls of the microtiter wells. The amount of hK2 was quantified by a commercial PSA immunoassay (Prostatus, Wallac, Turku, Finland) with the Mabs H1 17 and H50 which recognize PSA and hK2 equally well (Lovgren et al., Biochem. Biophys. Res. Co., 213, 888-895 (1995)). Under the conditions described, 1.6 pmol of the hK2 preparation cleaved 50 pmol/min of the 100 μM substrate Pro-Phe-Arg-AMC (SEQ ID NO: 55). During the 20 minute measurement time the consumption of the substrates is <7% of their total amount and was not considered to affect the reaction rate. Initial analysis of the substrates were performed with 3.2 pmol hK2 at a substrate concentration of 250 μM. Km value for the substrates cleaved by hK2 at these conditions were determined using at least four substrate concentrations ranging from 0.2×Km to 5×Km. The Km and kcat values were calculated from Lineweaver-Burk plots.
# Substrates ending in either arginine or lysine were tested. […] However, no hydrolysis of Arg-Gln-Arg-Arg-AMC (SEQ ID NO: 63) was detected. […] As with the semenogelins, hK2 also here cleaves substrates with Arg at position P1 and preferentially a large residue or another Arg at position P2. None of the substrates with lysine in the C-terminal position were cleaved.
# The activity listed in Table 1 is hydrolytic activity of hK2 with 100 μM substrate in relation to the hydrolytic activity of hK2 with 100 μM of the tissue kallikrein substrate H-Pro-Phe-Arg-AMC (SEQ ID NO: 55). The entry “NR” means that no reaction was detected.
# [2] = molecular target: sarcoplasmic reticulum (SR) and endoplasmic reticulum (ER) Ca^2+-ATPase (SERCA) pump; conditions: read-out: apparent dissociation constant; cited from earlier work
# hK2 [3] = molecular target: T1, hK2; test: Inhibition of hK2 by protease inhibitors (substrate H-Pro-Phe-Arg-AMC); type: biochemical; conditions: for inhibition of hK2 (in words): 8 nM hK2, 90 μM substrate; for Activity (%) of hK2, percentage of inhibitor-free control: 10 minutes of incubation, 8.3 nM hK2, 90 μM substrate
# Description: Activity of hK2 (1.6 pmol) was monitored using the substrate H-Pro-Phe-Arg-AMC (SEQ ID NO: 55) (90 μM). Inhibitors, at commonly used concentrations, and hK2 (8.3 nM) were mixed and proteolysis of 90 μM H-Pro-Phe-Arg-AMC (SEQ ID NO: 55) was followed up to 20 minutes, starting directly or 10 minutes after mixing the enzyme with various inhibitors. Inhibition was evaluated by comparison with […] controls.
# The proteolytic activity is expressed in percentage of inhibitor-free control after 10 minutes of incubation.
# Therefore, PPACK can be used to obtain fast irreversible inhibition of hK2.
# hK2 [4] = molecular target: T1, hK2; test: Kinetic analysis of hK2 inhibition by zinc; type: biochemical; conditions: for Ki: two bound zinc ions model, best fit, substrates Pro-Phe-Arg-AMC and Ala-Arg-Arg-AMC, no BSA
# Description: Since BSA contains several binding sites for Zn^2+, it could not be used in the kinetics buffer during zinc inhibition experiments. The binding of hK2 to the microtiter well walls caused a constant decrease in the reaction rate, which was however similar to all zinc concentrations. The velocities were calculated from a five-minute measurement time after mixing of the enzymes with the buffer containing substrate and zinc.
# The inhibition of hK2 by zinc was first tested against competitive, uncompetitive, mixed, non-competitive, and partial non-competitive inhibitor models using commonly used formulas described for the respective inhibition models. […] The Dixon plots ([Zn^2+]/v) for the inhibition were not linear. However, at low zinc ion concentrations the inhibition pattern looked competitive. The inhibition mechanism is clearly more complex than the ones described by the formulas used. Further analysis of the inhibition mechanism was done by deriving the rate equations for various more complex mechanisms and analyzing the data by least-squares best-fit systems. The possible mechanism required two bound zinc ions, and is presented by Scheme 1.
# [formula] where the concentration of free enzyme e is the total enzyme concentration divided by the sum of a) {(the zinc concentration divided by Ki1) times (the zinc concentration divided by Ki2)} and b) {(the zinc concentration divided by Ki1) plus 1} times {(the substrate concentration divided by Ks) plus 1}.
# The equation fitted the experimental data quite satisfactorily. The constant values were Ki1=4.6+/−3.9 μM, Ki2=3.2+/−0.7 μM, and k=k′.
# hK2 [5] = molecular target: T1, hK2; test: Effect of heparin on hK2 activity (Km and kcat of substrate); type: biochemical; conditions: heparin 10^−4 to 10^−7 M; data not shown
# From the text: The increase had no significant effect on the calculation of the constants.
compound,measurement,setting,value
"Cc1cc(=O)oc2cc(NC(=O)[C@H](CCCNC(=N)N)NC(=O)[C@H](CO)NC(=O)[C@H](Cc3ccccc3)NC(=O)OC(C)(C)C)ccc12 [Phe Ser Arg-AMC, Boc-Phe-Ser-Arg-AMC] (Boc-Phe-Ser-Arg-{AMC})",Kcat,hK2 [1],NR
"Cc1cc(=O)oc2cc(NC(=O)[C@H](CCCNC(=N)N)NC(=O)[C@H](Cc3ccccc3)NC(=O)[C@@H]3CCCN3)ccc12 [Pro Phe Arg-AMC, H-Pro-Phe-Arg-AMC] (H-Pro-Phe-Arg-{AMC})",hydrolysis by hK2 (in words),hK2 [1],best substrate
same,rate of substrate cleavage by hK2 preparation,"hK2 [1]; 1.6 pmol hK2, 100 μM substrate, pH 7.5, 37° C.",50 pmol/min
same,Activity (%): hydrolytic activity of hK2 in relation to H-Pro-Phe-Arg-AMC,hK2 [1],100%
"C/C=C(/C)C(=O)O[C@H]1C(C)=C2[C@H]([C@@H]1OC(=O)CCCCCCC)[C@@](C)(OC(C)=O)C[C@H](OC(=O)CCC)[C@@]1(O)[C@H]2OC(=O)[C@@]1(C)O [TG, Thapsigargin]",Kd,[2],≤ 2.2 pM
"Cc1cc(=O)oc2cc(NC(=O)[C@H](CCCCN)NC(=O)[C@H](CC(C)C)NC(=O)[C@H](N)C(C)C)ccc12 [Val Leu Lys-AMC, H-D-Val-Leu-Lys-AMC] (H-[dV]-Leu-Lys-{AMC})",Kcat,hK2 [1],NR
"Cc1cc(=O)oc2cc(NC(=O)[C@H](CCCNC(=N)N)NC(=O)[C@@H]3CCCN3C(=O)[C@@H](NC(=O)OC(C)(C)C)C(C)C)ccc12 [Val Pro Arg-AMC, boc-Val-Pro-Arg-AMC] (Boc-Val-Pro-Arg-{AMC})",hydrolysis by hK2 (in words),hK2 [1],with lower efficiency
same,Activity (%): hydrolytic activity of hK2 in relation to H-Pro-Phe-Arg-AMC,hK2 [1],6%
"Cc1cc(=O)oc2cc(NC(=O)[C@H](CCCNC(=N)N)NC(=O)[C@@H](NC(=O)[C@@H](NC(=O)OCc3ccccc3)C(C)C)C(C)C)ccc12 [Val Val Arg-AMC, Z-Val-Val-Arg-AMC] (Cbz-Val-Val-Arg-{AMC})",Kcat,hK2 [1],NR
[Cl-].[Cl-].[Zn+2] [ZnCl2],inhibition of hK2 (in words),hK2 [3],effectively inhibits hK2
same,"Activity (%) of hK2, percentage of inhibitor-free control",hK2 [3]; inhibitor 100 μM,10%
same,"Activity (%) of hK2, percentage of inhibitor-free control",hK2 [3]; inhibitor 200 μM,1.2%
same,effect on Km and Vmax of hK2,hK2 [4],increased the Km and decreased the Vmax
same,reversal of hK2 inhibition by addition of EDTA,hK2 [4],totally reversed
same,Ki,hK2 [4]; read-out: Ki1,4.6 µM
same,Ki,hK2 [4]; read-out: Ki2,3.2 µM
Aprotinin,inhibition of hK2 (in words),hK2 [3],not to be good hK2 inhibitor
same,"Activity (%) of hK2, percentage of inhibitor-free control",hK2 [3]; inhibitor 5 μM,10%
same,"Activity (%) of hK2, percentage of inhibitor-free control",hK2 [3]; inhibitor 30 μM,33%
PSTI: protease inhibitor present in the prostate (DSLGREAKCYNELNGCTKIYDPVCGTDGNTYPNECVLCFENRKRQTSILIQKSGPC),inhibition of hK2 (in words),hK2 [3],inhibited hK2 weakly
same,"Activity (%) of hK2, percentage of inhibitor-free control",hK2 [3]; inhibitor 0.08 μM,100%
same,"Activity (%) of hK2, percentage of inhibitor-free control",hK2 [3]; inhibitor 4 μM,89%
heparin,effect on Km of the substrate,hK2 [5],slightly increased
